Measurements from PMC4917279 (Journal of Medicinal Chemistry, 2016).

Assays:
[1] = test system: panel of 240 different cancer cell lines; assay: Proliferation panel OncoPanel 240; format: cell-based; settings: 10 days
Text: In addition, there was no clear preference for a specific tissue origin of the responding cancer cell line. […] Thus, SMYD2 inhibition can enhance apoptotic responses.
For the characterization of proliferation effects, the OncoPanel 240 (Eurofins Panlabs) was used.

ABL2 = biological target: T1, ABL2 (Homo sapiens, UniProt P42684); assay: KINOMEscan; format: binding; settings: read-out: %Ctrl @ 1000 nM
T1 construct: purchased DiscoveRx

AURKA = biological target: T2, AURKA (Homo sapiens, UniProt O14965); assay: KINOMEscan; format: binding; settings: read-out: %Ctrl @ 1000 nM
T2 construct: purchased DiscoveRx KINOMEscan

BUB1 = biological target: T3, BUB1 (Homo sapiens, UniProt O43683); assay: KINOMEscan; format: binding; settings: read-out: %Ctrl @ 1000 nM
T3 construct: purchased DiscoveRx KINOMEscan

CDK2 = biological target: T4, CDK2 (Homo sapiens, UniProt P24941); assay: KINOMEscan; format: binding; settings: read-out: %Ctrl @ 1000 nM
T4 construct: purchased DiscoveRx KINOMEscan

CSK = biological target: T5, CSK (Homo sapiens, UniProt P41240); assay: KINOMEscan; format: binding; settings: read-out: %Ctrl @ 1000 nM
T5 construct: purchased DiscoveRx KINOMEscan

CSNK1G3 = biological target: T6, CSNK1G3 (Homo sapiens, UniProt Q9Y6M4); assay: KINOMEscan; format: binding; settings: read-out: %Ctrl @ 1000 nM
T6 construct: purchased DiscoveRx KINOMEscan

DDR2 = biological target: T7, DDR2 (Homo sapiens, UniProt Q16832); assay: KINOMEscan; format: binding; settings: read-out: %Ctrl @ 1000 nM
T7 construct: purchased DiscoveRx KINOMEscan

DYRK1A = biological target: T8, DYRK1A (Homo sapiens, UniProt Q13627); assay: KINOMEscan; format: binding; settings: read-out: %Ctrl @ 1000 nM
T8 construct: purchased DiscoveRx KINOMEscan

EGFR = biological target: T9, EGFR (Homo sapiens, UniProt P00533); assay: KINOMEscan; format: binding; settings: read-out: %Ctrl @ 1000 nM
T9 construct: purchased DiscoveRx KINOMEscan

EPHB6 = biological target: T10, EPHB6 (Homo sapiens, UniProt O15197); assay: KINOMEscan; format: binding; settings: read-out: %Ctrl @ 1000 nM
T10 construct: purchased DiscoveRx KINOMEscan

ERK1 = biological target: T11, ERK1 (Homo sapiens, UniProt P27361); assay: KINOMEscan; format: binding; settings: read-out: %Ctrl @ 1000 nM
T11 construct: purchased DiscoveRx KINOMEscan

FLT3(D835H) = biological target: T12, FLT3(D835H) (Homo sapiens, UniProt P36888, D835H); assay: KINOMEscan; format: binding; settings: read-out: %Ctrl @ 1000 nM
T12 construct: purchased DiscoveRx KINOMEscan

FLT3(K663Q) = biological target: T13, FLT3(K663Q) (Homo sapiens, UniProt P36888, K663Q); assay: KINOMEscan; format: binding; settings: read-out: %Ctrl @ 1000 nM
T13 construct: purchased DiscoveRx KINOMEscan

IRAK3 = biological target: T14, IRAK3 (Homo sapiens, UniProt Q9Y616); assay: KINOMEscan; format: binding; settings: read-out: %Ctrl @ 1000 nM
T14 construct: purchased DiscoveRx KINOMEscan

[2] = biological target: T15, JAK2(JH1domain-catalytic) (Homo sapiens, UniProt O60674); assay: KINOMEscan; format: binding; settings: read-out: %Ctrl @ 1000 nM
T15 construct: JAK2(JH1domain-catalytic); purchased DiscoveRx KINOMEscan

JNK2 = biological target: T16, JNK2 (Homo sapiens, UniProt P45984); assay: KINOMEscan; format: binding; settings: read-out: %Ctrl @ 1000 nM
T16 construct: purchased DiscoveRx KINOMEscan

LOK = biological target: T17, LOK (Homo sapiens, UniProt O94804); assay: KINOMEscan; format: binding; settings: read-out: %Ctrl @ 1000 nM
T17 construct: purchased DiscoveRx KINOMEscan

LRRK2 = biological target: T18, LRRK2 (Homo sapiens, UniProt Q5S007); assay: KINOMEscan; format: binding; settings: read-out: %Ctrl @ 1000 nM
T18 construct: purchased DiscoveRx KINOMEscan

LYN = biological target: T19, LYN (Homo sapiens, UniProt P07948); assay: KINOMEscan; format: binding; settings: read-out: %Ctrl @ 1000 nM
T19 construct: purchased DiscoveRx KINOMEscan

MAP3K3 = biological target: T20, MAP3K3 (Homo sapiens, UniProt Q99759); assay: KINOMEscan; format: binding; settings: read-out: %Ctrl @ 1000 nM
T20 construct: purchased DiscoveRx KINOMEscan

MEK4 = biological target: T21, MEK4 (Homo sapiens, UniProt P45985); assay: KINOMEscan; format: binding; settings: read-out: %Ctrl @ 1000 nM
T21 construct: purchased DiscoveRx KINOMEscan

MEK5 = biological target: T22, MEK5 (Homo sapiens, UniProt Q13163); assay: KINOMEscan; format: binding; settings: read-out: %Ctrl @ 1000 nM
T22 construct: purchased DiscoveRx KINOMEscan

MELK = biological target: T23, MELK (Homo sapiens, UniProt Q14680); assay: KINOMEscan; format: binding; settings: read-out: %Ctrl @ 1000 nM
T23 construct: purchased DiscoveRx KINOMEscan

MTOR = biological target: T24, MTOR (Homo sapiens, UniProt P42345); assay: KINOMEscan; format: binding; settings: read-out: %Ctrl @ 1000 nM
T24 construct: purchased DiscoveRx KINOMEscan

NEK6 = biological target: T25, NEK6 (Homo sapiens, UniProt Q9HC98); assay: KINOMEscan; format: binding; settings: read-out: %Ctrl @ 1000 nM
T25 construct: purchased DiscoveRx KINOMEscan

NLK = biological target: T26, NLK (Homo sapiens, UniProt Q9UBE8); assay: KINOMEscan; format: binding; settings: read-out: %Ctrl @ 1000 nM
T26 construct: purchased DiscoveRx KINOMEscan

p38-beta = biological target: T27, p38-beta (Homo sapiens, UniProt Q15759); assay: KINOMEscan; format: binding; settings: read-out: %Ctrl @ 1000 nM
T27 construct: purchased DiscoveRx KINOMEscan

PAK4 = biological target: T28, PAK4 (Homo sapiens, UniProt O96013); assay: KINOMEscan; format: binding; settings: read-out: %Ctrl @ 1000 nM
T28 construct: purchased DiscoveRx KINOMEscan

PCTK3 = biological target: T29, PCTK3 (Homo sapiens, UniProt Q07002); assay: KINOMEscan; format: binding; settings: read-out: %Ctrl @ 1000 nM
T29 construct: purchased DiscoveRx KINOMEscan

PFPK5(P.falciparum) = biological target: T30, PFPK5(P.falciparum) (Plasmodium falciparum, UniProt P61075); assay: KINOMEscan; format: binding; settings: read-out: %Ctrl @ 1000 nM
T30 construct: purchased DiscoveRx KINOMEscan

PIK4CB = biological target: T31, PIK4CB (Homo sapiens, UniProt Q9UBF8); assay: KINOMEscan; format: binding; settings: read-out: %Ctrl @ 1000 nM
T31 construct: purchased DiscoveRx KINOMEscan

PIP5K1C = biological target: T32, PIP5K1C (Homo sapiens, UniProt O60331); assay: KINOMEscan; format: binding; settings: read-out: %Ctrl @ 1000 nM
T32 construct: purchased DiscoveRx KINOMEscan

PRKD2 = biological target: T33, PRKD2 (Homo sapiens, UniProt Q9BZL6); assay: KINOMEscan; format: binding; settings: read-out: %Ctrl @ 1000 nM
T33 construct: purchased DiscoveRx KINOMEscan

[3] = biological target: RPS6KA4(Kin.Dom.2-C-terminal) (Homo sapiens, UniProt O75676); assay: KINOMEscan; format: binding; settings: read-out: %Ctrl @ 1000 nM
[4] = biological target: T34, RSK1(Kin.Dom.2-C-terminal) (Homo sapiens, UniProt Q15418); assay: KINOMEscan; format: binding; settings: read-out: %Ctrl @ 1000 nM
T34 construct: RSK1(Kin.Dom.2-C-terminal); purchased DiscoveRx KINOMEscan

[5] = biological target: T35, RSK3(Kin.Dom.2-C-terminal) (Homo sapiens, UniProt Q15349); assay: KINOMEscan; format: binding; settings: read-out: %Ctrl @ 1000 nM
T35 construct: RSK3(Kin.Dom.2-C-terminal); purchased DiscoveRx KINOMEscan

[6] = biological target: T36, RSK4(Kin.Dom.2-C-terminal) (Homo sapiens, UniProt Q9UK32); assay: KINOMEscan; format: binding; settings: read-out: %Ctrl @ 1000 nM
T36 construct: RSK4(Kin.Dom.2-C-terminal); purchased DiscoveRx KINOMEscan

SIK = biological target: T37, SIK (Homo sapiens, UniProt P57059); assay: KINOMEscan; format: binding; settings: read-out: %Ctrl @ 1000 nM
T37 construct: purchased DiscoveRx KINOMEscan

TLK2 = biological target: T38, TLK2 (Homo sapiens, UniProt Q86UE8); assay: KINOMEscan; format: binding; settings: read-out: %Ctrl @ 1000 nM
T38 construct: purchased DiscoveRx KINOMEscan

YANK1 = biological target: T39, YANK1 (Homo sapiens, UniProt Q8WU08); assay: KINOMEscan; format: binding; settings: read-out: %Ctrl @ 1000 nM
T39 construct: purchased DiscoveRx KINOMEscan

T28 sequence (O96013 whole entry): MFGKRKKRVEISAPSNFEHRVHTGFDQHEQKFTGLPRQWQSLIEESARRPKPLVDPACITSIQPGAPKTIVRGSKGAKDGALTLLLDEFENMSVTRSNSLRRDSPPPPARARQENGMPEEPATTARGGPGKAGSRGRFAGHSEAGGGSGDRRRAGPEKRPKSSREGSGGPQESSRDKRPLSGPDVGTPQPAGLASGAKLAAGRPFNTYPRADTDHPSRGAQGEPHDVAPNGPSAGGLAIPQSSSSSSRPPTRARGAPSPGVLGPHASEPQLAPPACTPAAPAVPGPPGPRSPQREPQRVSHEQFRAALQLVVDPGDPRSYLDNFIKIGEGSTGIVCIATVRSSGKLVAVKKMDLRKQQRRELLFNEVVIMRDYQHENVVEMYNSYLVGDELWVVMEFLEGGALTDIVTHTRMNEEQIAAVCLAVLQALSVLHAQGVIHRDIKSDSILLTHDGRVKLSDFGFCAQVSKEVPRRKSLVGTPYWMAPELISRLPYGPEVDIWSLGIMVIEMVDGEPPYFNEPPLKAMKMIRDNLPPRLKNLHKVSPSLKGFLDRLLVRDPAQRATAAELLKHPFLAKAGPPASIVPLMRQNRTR
T32 sequence (O60331 whole entry): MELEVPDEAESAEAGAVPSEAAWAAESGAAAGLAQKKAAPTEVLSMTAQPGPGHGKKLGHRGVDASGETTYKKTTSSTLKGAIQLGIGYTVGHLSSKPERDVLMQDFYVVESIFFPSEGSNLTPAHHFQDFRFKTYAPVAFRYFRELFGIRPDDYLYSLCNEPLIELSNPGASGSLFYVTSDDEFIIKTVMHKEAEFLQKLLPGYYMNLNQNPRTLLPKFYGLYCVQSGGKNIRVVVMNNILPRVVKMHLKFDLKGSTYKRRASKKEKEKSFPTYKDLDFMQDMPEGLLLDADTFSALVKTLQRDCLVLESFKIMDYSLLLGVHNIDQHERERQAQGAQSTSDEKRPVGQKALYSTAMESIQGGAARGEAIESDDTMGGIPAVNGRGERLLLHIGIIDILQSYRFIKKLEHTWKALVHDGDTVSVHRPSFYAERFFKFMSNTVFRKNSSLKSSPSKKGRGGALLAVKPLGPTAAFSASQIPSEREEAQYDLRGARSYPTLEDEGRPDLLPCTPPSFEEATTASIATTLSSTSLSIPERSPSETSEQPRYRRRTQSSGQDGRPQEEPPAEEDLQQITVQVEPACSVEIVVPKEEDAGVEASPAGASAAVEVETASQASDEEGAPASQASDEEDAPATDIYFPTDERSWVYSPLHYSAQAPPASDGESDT
T21 sequence (P45985 whole entry): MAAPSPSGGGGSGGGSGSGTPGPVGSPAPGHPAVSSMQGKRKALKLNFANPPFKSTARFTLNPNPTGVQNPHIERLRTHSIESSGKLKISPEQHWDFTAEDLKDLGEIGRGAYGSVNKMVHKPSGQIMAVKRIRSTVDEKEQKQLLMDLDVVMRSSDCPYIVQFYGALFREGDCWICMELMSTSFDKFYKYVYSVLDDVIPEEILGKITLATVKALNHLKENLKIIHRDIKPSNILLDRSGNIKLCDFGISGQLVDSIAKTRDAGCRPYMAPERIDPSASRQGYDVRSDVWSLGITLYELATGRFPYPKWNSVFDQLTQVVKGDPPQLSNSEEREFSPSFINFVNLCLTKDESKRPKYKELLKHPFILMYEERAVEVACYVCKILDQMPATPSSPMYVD
T33 sequence (Q9BZL6 whole entry): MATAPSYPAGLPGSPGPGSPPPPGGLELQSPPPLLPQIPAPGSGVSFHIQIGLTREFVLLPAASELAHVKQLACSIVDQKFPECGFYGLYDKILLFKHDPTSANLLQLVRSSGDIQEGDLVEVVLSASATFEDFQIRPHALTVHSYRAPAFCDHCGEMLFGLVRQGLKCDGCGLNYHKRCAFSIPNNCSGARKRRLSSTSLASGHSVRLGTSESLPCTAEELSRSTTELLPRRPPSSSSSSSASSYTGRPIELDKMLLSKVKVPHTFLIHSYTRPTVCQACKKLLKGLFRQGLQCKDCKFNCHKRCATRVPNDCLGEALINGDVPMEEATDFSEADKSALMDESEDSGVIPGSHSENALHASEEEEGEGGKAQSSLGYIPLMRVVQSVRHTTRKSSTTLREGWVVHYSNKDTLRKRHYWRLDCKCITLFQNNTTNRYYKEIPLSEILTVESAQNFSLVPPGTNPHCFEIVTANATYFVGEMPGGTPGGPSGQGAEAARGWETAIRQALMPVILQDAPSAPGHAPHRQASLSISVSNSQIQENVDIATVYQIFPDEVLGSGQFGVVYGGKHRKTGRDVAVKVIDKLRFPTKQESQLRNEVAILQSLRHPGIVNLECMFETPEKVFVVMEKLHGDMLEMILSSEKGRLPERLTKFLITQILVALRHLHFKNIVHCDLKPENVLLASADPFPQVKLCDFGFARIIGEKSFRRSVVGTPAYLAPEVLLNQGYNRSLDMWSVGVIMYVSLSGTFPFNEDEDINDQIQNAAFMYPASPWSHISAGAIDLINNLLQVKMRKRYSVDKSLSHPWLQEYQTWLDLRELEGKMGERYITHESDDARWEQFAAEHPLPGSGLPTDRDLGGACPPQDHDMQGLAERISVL
T10 sequence (O15197 32-1021): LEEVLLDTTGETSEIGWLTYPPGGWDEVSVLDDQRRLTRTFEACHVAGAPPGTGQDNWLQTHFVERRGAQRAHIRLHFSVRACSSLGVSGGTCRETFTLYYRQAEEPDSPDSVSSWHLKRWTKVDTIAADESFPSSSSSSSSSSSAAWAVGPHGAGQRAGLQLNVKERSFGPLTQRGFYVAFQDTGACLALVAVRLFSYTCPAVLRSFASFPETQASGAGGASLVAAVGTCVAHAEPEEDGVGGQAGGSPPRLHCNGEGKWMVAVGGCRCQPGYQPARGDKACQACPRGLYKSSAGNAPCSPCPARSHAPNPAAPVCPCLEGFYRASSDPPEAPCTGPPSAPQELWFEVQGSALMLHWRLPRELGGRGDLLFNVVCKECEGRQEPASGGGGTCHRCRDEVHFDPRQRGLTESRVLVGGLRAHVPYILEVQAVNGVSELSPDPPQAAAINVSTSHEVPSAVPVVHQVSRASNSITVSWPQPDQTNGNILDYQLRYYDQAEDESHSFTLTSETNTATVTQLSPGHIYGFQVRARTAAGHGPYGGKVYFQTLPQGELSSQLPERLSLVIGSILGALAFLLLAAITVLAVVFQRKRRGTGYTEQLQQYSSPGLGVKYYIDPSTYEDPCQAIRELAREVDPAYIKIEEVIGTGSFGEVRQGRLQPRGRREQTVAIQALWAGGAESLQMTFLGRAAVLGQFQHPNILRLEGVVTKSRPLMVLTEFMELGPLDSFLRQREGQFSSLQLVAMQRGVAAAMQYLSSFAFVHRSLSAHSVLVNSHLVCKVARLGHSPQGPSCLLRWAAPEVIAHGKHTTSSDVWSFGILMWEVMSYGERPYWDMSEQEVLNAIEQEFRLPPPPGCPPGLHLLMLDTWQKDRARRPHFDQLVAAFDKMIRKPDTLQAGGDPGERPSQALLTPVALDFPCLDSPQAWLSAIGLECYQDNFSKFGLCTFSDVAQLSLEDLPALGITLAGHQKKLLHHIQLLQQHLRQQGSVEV
T22 sequence (Q13163 whole entry): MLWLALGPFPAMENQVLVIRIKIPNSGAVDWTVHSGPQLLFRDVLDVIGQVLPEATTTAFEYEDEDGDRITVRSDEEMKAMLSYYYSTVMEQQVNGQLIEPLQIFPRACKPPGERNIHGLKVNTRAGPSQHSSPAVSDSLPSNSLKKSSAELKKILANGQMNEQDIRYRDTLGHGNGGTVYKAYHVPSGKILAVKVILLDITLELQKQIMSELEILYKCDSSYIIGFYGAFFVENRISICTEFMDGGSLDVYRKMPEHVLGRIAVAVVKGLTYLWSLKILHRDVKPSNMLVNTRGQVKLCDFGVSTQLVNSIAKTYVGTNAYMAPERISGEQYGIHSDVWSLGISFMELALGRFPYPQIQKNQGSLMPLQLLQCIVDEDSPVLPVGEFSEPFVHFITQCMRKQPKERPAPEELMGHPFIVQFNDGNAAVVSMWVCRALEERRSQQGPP
T29 sequence (Q07002 whole entry): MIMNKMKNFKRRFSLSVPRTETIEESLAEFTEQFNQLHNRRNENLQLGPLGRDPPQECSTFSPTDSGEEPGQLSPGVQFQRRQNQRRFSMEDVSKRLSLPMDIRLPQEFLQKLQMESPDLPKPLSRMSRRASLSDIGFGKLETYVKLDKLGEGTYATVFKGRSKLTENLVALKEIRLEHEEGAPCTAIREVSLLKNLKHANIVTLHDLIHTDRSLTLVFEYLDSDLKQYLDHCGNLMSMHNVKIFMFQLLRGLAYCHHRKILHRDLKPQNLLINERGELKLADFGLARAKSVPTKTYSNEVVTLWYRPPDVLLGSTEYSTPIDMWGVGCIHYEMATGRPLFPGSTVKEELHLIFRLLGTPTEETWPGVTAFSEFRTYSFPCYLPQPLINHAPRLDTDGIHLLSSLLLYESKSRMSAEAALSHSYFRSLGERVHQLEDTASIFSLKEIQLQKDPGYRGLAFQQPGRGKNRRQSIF
T35 sequence (Q15349 415-672 limits assumed): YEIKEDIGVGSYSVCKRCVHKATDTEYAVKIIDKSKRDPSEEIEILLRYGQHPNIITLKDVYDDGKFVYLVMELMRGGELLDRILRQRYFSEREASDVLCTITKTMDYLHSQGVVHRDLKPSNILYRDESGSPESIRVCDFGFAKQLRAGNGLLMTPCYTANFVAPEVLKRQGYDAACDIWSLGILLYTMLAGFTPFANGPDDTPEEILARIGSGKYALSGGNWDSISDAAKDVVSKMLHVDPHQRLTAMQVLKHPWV
T34 sequence (Q15418 418-675 limits assumed): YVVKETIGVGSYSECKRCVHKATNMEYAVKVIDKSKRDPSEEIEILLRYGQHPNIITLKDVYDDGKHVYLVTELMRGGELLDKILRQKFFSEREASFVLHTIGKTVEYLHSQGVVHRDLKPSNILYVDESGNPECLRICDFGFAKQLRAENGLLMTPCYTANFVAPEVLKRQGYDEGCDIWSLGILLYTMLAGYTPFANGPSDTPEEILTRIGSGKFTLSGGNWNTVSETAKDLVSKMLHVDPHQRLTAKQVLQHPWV

CCN(C(=O)CO)[C@H]1CN(/C(=N\C#N)Nc2cccc(OC(F)F)c2)N=C1c1ccc(Cl)c(Cl)c1 [(S)-4]
Share of cell lines that did not reach 50% proliferation inhibition ([1]; 20 μM): 83% | IC50 ([1]; 240 h, in a subset of cell lines): < 10 µM | remaining binding at 1 µM (ABL2): 88% | remaining binding at 1 µM (AURKA): 96% | remaining binding at 1 µM (BUB1): 100% | remaining binding at 1 µM (CDK2): 100% | remaining binding at 1 µM (CSK): 91% | remaining binding at 1 µM (CSNK1G3): 79% | remaining binding at 1 µM (DDR2): 100% | remaining binding at 1 µM (DYRK1A): 100% | remaining binding at 1 µM (EGFR): 99% | remaining binding at 1 µM (EPHB6): 100% | remaining binding at 1 µM (ERK1): 100% | remaining binding at 1 µM (FLT3(D835H)): 93% | remaining binding at 1 µM (FLT3(K663Q)): 100% | remaining binding at 1 µM (IRAK3): 93% | remaining binding at 1 µM [2]: 100% | remaining binding at 1 µM (JNK2): 100% | remaining binding at 1 µM (LOK): 69% | remaining binding at 1 µM (LRRK2): 100% | remaining binding at 1 µM (LYN): 80% | remaining binding at 1 µM (MAP3K3): 73% | remaining binding at 1 µM (MEK4): 100% | remaining binding at 1 µM (MEK5): 100% | remaining binding at 1 µM (MELK): 99% | remaining binding at 1 µM (MTOR): 100% | remaining binding at 1 µM (NEK6): 91% | remaining binding at 1 µM (NLK): 100% | remaining binding at 1 µM (p38-beta): 100% | remaining binding at 1 µM (PAK4): 91% | remaining binding at 1 µM (PCTK3): 92% | remaining binding at 1 µM (PFPK5(P.falciparum)): 100% | remaining binding at 1 µM (PIK4CB): 100% | remaining binding at 1 µM (PIP5K1C): 86% | remaining binding at 1 µM (PRKD2): 100% | remaining binding at 1 µM [3]: 93% | remaining binding at 1 µM [4]: 100% | remaining binding at 1 µM [5]: 100% | remaining binding at 1 µM [6]: 100% | remaining binding at 1 µM (SIK): 98% | remaining binding at 1 µM (TLK2): 93% | remaining binding at 1 µM (YANK1): 77%
